Experiments:
IKKε = IKKε (Homo sapiens (Human), UniProt Q14164); experiment: IKKε kinase assay (384-well flashplate assay); assay type: biochemical; conditions: 1 nM IKKε, 10 μM ATP, 30° C., 2 hours; read-out: IKKε enzyme assay IC50
Protocol: Test for the Inhibition of IKKε
IKKε—Kinase Assay (IKKepsilon)
The kinase assay is performed as 384-well flashplate assay (for example for Topcount measurement).
1 nM IKKε, 800 nM biotinylated IκBα(19-42) peptide (Biotin-C6-C6-[…]) and 10 μM ATP (spiked with 0.3 μCi of ^33P-ATP/well) are incubated at 30° C. for 2 hours in a total volume of 50 μl (10 mM MOPS, 10 mM Mg acetate, 0.1 mM EGTA, 1 mM dithiothreitol, 0.02% of Brij35, 0.1% of BSA, 0.1% of BioStab, pH 7.5) with or without test compound. The reaction is stopped using 25 μl of 200 mM EDTA. After 30 min at room temperature, the liquid is removed, and each well is washed three times with 100 μl of 0.9% sodium chloride solution. Non-specific reaction is determined in the presence of 3 μM MSC2119074 (BX-795). The radioactivity is measured using a Topcount (PerkinElmer). The results (for example IC50 values) are calculated using program tools provided by the IT Department (for example AssayExplorer, Symyx).

[1] = target: TANK binding kinase (TBK1) (Homo sapiens (Human), UniProt Q9UHD2); experiment: TBK1 enzyme assay (384-well flashplate kinase assay); assay type: biochemical; conditions: 0.6 nM TBK1, 10 μM ATP, 30° C., 120 min
Sequence of TANK binding kinase (TBK1) (Q9UHD2 whole entry): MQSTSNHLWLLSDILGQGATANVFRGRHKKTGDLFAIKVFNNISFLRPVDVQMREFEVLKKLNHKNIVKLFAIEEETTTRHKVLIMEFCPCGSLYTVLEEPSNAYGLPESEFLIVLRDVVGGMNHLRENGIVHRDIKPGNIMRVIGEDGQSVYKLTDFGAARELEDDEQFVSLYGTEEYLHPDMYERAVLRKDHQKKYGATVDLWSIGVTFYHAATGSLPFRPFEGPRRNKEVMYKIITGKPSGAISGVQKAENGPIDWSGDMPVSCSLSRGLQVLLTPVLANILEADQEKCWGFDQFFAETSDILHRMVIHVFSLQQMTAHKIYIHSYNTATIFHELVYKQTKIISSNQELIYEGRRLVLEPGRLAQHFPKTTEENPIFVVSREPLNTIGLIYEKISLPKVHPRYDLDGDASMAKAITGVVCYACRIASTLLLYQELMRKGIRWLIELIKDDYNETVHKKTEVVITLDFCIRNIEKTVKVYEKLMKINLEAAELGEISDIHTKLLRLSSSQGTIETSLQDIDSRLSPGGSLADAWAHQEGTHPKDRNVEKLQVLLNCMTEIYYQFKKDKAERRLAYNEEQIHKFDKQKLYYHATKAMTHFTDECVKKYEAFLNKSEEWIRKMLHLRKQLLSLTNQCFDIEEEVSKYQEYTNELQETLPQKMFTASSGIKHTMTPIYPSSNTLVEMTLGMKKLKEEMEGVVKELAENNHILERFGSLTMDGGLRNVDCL
Protocol: Test for the Inhibition of TBK1
0.6 nM TANK binding kinase (TBK1), 800 nM biotinylated MELK-derived peptide (Biotin-Ah-Ah-[sequence]) and 10 μM ATP (spiked with 0.25 μCi of ^33P-ATP/well) are incubated at 30° C. for 120 min in a total volume of 50 μl (10 mM MOPS, 10 mM Mg acetate, 0.1 mM EGTA, 1 mM DTT, 0.02% of Brij35, 0.1% of BSA, pH 7.5) with or without test compound. The reaction is stopped with 25 μl of 200 mM EDTA. After 30 min at room temperature, the liquid is removed, and each well is washed three times with 100 μl of 0.9% sodium chloride solution. Non-specific reaction is measured in the presence of 100 nM staurosporine. The radioactivity is measured in a Topcount (PerkinElmer).

Sequence of IKKε (Q14164 whole entry): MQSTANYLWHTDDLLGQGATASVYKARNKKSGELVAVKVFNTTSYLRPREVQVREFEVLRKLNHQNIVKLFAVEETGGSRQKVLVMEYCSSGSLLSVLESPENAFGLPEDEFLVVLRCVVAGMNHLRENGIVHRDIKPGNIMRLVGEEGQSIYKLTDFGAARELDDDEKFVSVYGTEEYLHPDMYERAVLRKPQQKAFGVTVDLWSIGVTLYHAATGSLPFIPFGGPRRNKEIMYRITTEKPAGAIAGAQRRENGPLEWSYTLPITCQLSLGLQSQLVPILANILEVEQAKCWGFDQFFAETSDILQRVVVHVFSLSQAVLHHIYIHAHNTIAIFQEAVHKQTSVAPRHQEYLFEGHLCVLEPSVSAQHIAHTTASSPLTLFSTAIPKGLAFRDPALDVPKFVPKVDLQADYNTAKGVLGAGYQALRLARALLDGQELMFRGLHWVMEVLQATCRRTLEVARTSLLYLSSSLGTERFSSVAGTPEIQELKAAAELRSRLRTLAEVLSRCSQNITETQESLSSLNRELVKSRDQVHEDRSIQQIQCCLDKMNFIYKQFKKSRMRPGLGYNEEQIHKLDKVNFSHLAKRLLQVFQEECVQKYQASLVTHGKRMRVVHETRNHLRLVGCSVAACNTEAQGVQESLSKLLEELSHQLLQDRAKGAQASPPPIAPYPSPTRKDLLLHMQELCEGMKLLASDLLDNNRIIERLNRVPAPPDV

| Structure (SMILES) | IC50 (IKKε) [nM] | IC50 [1] [nM] |
| --- | --- | --- |
| N#Cc1cc(-c2ccnc(Nc3cc(CO)ccn3)n2)ccc1OC1CCOCC1 [Compound A70, 5-[2-(4-hydroxymethylpyridin-2-ylamino)pyrimidin-4-yl]-2-(tetrahydropyran-4-yloxy)benzonitrile] | 140 | 180 |
| N#Cc1cc(-c2ccnc(Nc3cc(N4CCOCC4)ccn3)c2)ccc1OC1CCOCC1 [Compound A82, 5-[2-(4-morpholin-4-ylpyridin-2-ylamino)pyridin-4-yl]-2-(tetrahydropyran-4-yloxy)benzonitrile] | 150 | 230 |
| CN1CCN(c2ccnc(Nc3cc(-c4ccc(OC5CCOCC5)c(C#N)c4)ccn3)c2)CC1 [Compound A84, 5-{2-[4-(4-methylpiperazin-1-yl)pyridin-2-ylamino]pyridin-4-yl}-2-(tetrahydropyran-4-yloxy)benzonitrile] | 210 | 350 |
| N#Cc1cc(-c2ccnc(Nc3cncc(N4CCOCC4)n3)c2)ccc1OC1CCOCC1 [Compound A85, 5-[2-(6-morpholin-4-ylpyrazin-2-ylamino)pyridin-4-yl]-2-(tetrahydropyran-4-yloxy)benzonitrile] | 390 | 330 |
| N#Cc1cc(-c2ccnc(Nc3cc(C4=CCCCO4)ccn3)c2)ccc1OC1CCOCC1 [Compound A86, 5-{2-[4-(5,6-dihydro-4H-pyran-2-yl)pyridin-2-ylamino]pyridin-4-yl}-2-(tetrahydropyran-4-yloxy)benzonitrile] | 300 | 290 |
| N#Cc1cc(-c2ccnc(Nc3nc(C4CC4)cs3)n2)ccc1OC1CCOCC1 [Compound A87, 5-[2-(4-cyclopropylthiazol-2-ylamino)pyrimidin-4-yl]-2-(tetrahydropyran-4-yloxy)benzonitrile] | 300 | 300 |
| N#Cc1cc(-c2ccnc(Nc3ccc(CN4CC5(COC5)C4)cn3)c2)ccc1OC1CCOCC1 [Compound A88, 5-{2-[5-(2-oxa-6-azaspiro[3.3]hept-6-ylmethyl)pyridin-2-yl-amino]pyridin-4-yl}-2-(tetrahydropyran-4-yloxy)benzonitrile] | 45 | 41 |
| N#Cc1cc(-c2ccnc(Nc3nccc(C4CCNCC4)n3)c2)ccc1OC1CCOCC1 [Compound A89, 5-[2-(4-piperidin-4-ylpyrimidin-2-ylamino)pyridin-4-yl]-2-(tetrahydropyran-4-yloxy)benzonitrile] | 120 | 140 |
| N#Cc1cc(-c2ccnc(Nc3cncc(C4=CCCCO4)n3)c2)ccc1OC1CCOCC1 [Compound A92, 5-{2-[6-(5,6-dihydro-4H-pyran-2-yl)pyrazin-2-ylamino]pyridin-4-yl}-2-(tetrahydropyran-4-yloxy)benzonitrile] | 930 | 850 |
| Cc1coc(Nc2nccc(-c3ccc(OC4CCOCC4)c(C#N)c3)n2)n1 [Compound A93, 5-[2-(4-methyloxazol-2-ylamino)pyrimidin-4-yl]-2-(tetrahydropyran-4-yloxy)benzonitrile] | 310 | 550 |
| N#Cc1cc(-c2ccnc(Nc3ccc(C4CCOCC4)nn3)c2)ccc1OC1CCOCC1 [Compound A100, 2-(tetrahydropyran-4-yloxy)-5-{2-[6-(tetrahydropyran-4-yl)pyridazin-3-yl-amino]pyridin-4-yl}benzonitrile] | 39 | 14 |
| N#Cc1cc(-c2ccnc(Nc3nccnc3CO)c2)ccc1OC1CCOCC1 [Compound A102, 5-[2-(3-hydroxymethylpyrazin-2-ylamino)pyridin-4-yl]-2-(tetrahydropyran-4-yloxy)benzonitrile] | 430 | 350 |
| N#Cc1cc(-c2ccnc(Nc3cn[nH]c3)c2)ccc1OCC1CC1 [Compound A104, 2-cyclopropylmethoxy-5-[2-(1H-pyrazol-4-ylamino)pyridin-4-yl]-benzonitrile] | 96 | 460 |

Source: patent US8969335B2, “Benzonitrile derivatives as kinase inhibitors” (MERCK PATENT GmbH, priority 2011, dated 2015)
